According to patent US6448422B1, “Chromogenic compound” (Eli Lilly and Company, priority 2000, dated 2002):

Molecular target: T1, Hepatic Lipase (Homo sapiens, UniProt P11150)
T1 sequence (P11150 23-499): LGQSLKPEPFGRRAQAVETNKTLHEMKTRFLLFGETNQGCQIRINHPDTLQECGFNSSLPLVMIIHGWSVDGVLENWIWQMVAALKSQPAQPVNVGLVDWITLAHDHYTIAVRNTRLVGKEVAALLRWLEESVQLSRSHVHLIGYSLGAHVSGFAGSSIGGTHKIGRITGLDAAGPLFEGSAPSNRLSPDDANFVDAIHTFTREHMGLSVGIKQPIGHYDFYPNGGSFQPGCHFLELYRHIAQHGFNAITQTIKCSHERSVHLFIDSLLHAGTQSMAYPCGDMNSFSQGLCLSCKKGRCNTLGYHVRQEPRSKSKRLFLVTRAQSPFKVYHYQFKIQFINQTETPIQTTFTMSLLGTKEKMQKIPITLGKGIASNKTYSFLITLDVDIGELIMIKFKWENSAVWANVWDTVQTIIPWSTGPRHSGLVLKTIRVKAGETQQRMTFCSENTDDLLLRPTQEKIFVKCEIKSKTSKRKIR
Experiment: Hydrolysis of thioPEG and thioPC substrates by Hepatic Lipase (papain thiol detection system, FIG. 1)
Assay type: biochemical
Details: 0.5 mM thioPEG (enzyme diluted 100-5000 fold), 1.0 mM thioPC (enzyme diluted 1-64 fold)
Method: Hepatic Lipase enzyme was diluted 1, 32 or 64 fold for thioPC and 100, 500, 1000 or 5000 fold for thioPEG. Hydrolysis was measured by the papain thiol detection system (discussed below). […] Data curve I represents 0.5 mM thioPEG and Data Curve II represents 1.0 mM thioPC.
The invention also has the additional advantage of requiring fewer incubation periods in order to obtain detectable color. For example as shown in Scheme D below, thioPC substrate requires a reaction coupled with an enzymatic detection process for the liberated thiol-lysophospholipid which has two additional incubation periods in the papain system. L-BAPNA is an abbreviation for N-benzoyl-L-arginine, p-nitroanilide, hydrochloride.
In Scheme E, below, thioPC is combined with hepatic lipase and incubated for about 30 minutes yielding a free-thiol lysophospholipid. […] Activated papain-SH enzyme is combined with a coloring agent, L-BAPNA, and incubated for 60 minutes yielding a colored product, p-nitro aniline. ThioPEG substrate is an improvement since it requires only a single incubation period to yield detectable color. [drawing 12]

| Compound | hydrolysis of substrate by Hepatic Lipase (Optical Density at 410 nM vs Relative Enzyme Concentration) |
| --- | --- |
| didecanoyl-thio-phosphatidylcholine [thioPC] | much more slowly |
| CCCCCCCCCC(=O)O[C@@H](COP(=O)(O)OCCO)CSC(=O)CCCCCCCCC [thioPEG, (1-Decanoylthio-1-deoxy-2-decanoyl-sn-glycero-3-phosphoryl) ethylene glycol] | hydrolyzed much faster than thioPC |
